Target: hu3F8 Fab
Type: binding

Substance: GD2 hexasaccharide [GD2os]
- Kd: 2.3 ± 0.1 µM
